In patent publication US20070128217A1 (priority 2003, published 2007):

What was measured:
[1] = test system: antibodies in sera from SARS patients (sera 1a, 1b, 2, 6, 37, 62, London, SARS-yellow, SARS-green); assay type: binding, human; parameters: Binding of serum 6 to linear peptides of protein X1 of SARS-CoV Urbani / Binding of serum 37 to linear peptides of protein X1 of SARS-CoV Urbani / Binding of serum 6 to looped/cyclic peptide (PEPSCAN-ELISA) / Binding of serum 37 to looped/cyclic peptide (PEPSCAN-ELISA) / Binding of serum 37 to looped/cyclic peptides of protein X1 of SARS-CoV Urbani / Binding of serum 6 to linear peptides of protein X2 / Binding of serum 37 to linear peptides of protein X2 / Binding of serum 37 to looped/cyclic peptides of protein X2 of SARS-CoV Urbani / Binding of serum 6 to linear peptides of protein M of SARS-CoV Urbani / Binding of serum 37 to linear peptides of protein M of SARS-CoV Urbani / Binding of serum 6 to looped/cyclic peptides of protein M of SARS-CoV Urbani / Binding of serum 37 to looped/cyclic peptides of protein M of SARS-CoV Urbani / Binding of serum 6 to linear peptides of protein X3 of SARS-CoV Urbani / Binding of serum 37 to linear peptides of protein X3 of SARS-CoV Urbani / Binding of serum 37 to looped/cyclic peptides of protein X3 of SARS-CoV Urbani / Binding of serum 6 to linear peptides of protein X4 of SARS-CoV Urbani / Binding of serum 37 to linear peptides of protein X4 of SARS-CoV Urbani / Binding of serum 37 to looped/cyclic peptides of protein X4 of SARS-CoV Urbani / Binding of serum 6 to linear peptides of protein X5 of SARS-CoV Urbani / Binding of serum 37 to linear peptides of protein X5 of SARS-CoV Urbani / Binding of serum 37 to looped/cyclic peptides of protein X5 of SARS-CoV Urbani / Binding of serum 6 to linear peptides of protein N of SARS-CoV Urbani / Binding of serum 37 to linear peptides of protein N of SARS-CoV Urbani / Binding of serum 6 to linear peptide (PEPSCAN-ELISA) / Binding of serum 1a to looped/cyclic peptides of protein N of SARS-CoV Urbani / Binding of serum 1b to looped/cyclic peptides of protein N of SARS-CoV Urbani / Binding of serum 2 to looped/cyclic peptides of protein N of SARS-CoV Urbani / Binding of serum 6 to looped/cyclic peptides of protein N of SARS-CoV Urbani / Binding of serum 37 to looped/cyclic peptides of protein N of SARS-CoV Urbani / Binding of serum 62 to looped/cyclic peptides of protein N of SARS-CoV Urbani / Binding of serum London to looped/cyclic peptides of protein N of SARS-CoV Urbani / Binding of serum SARS-green to looped/cyclic peptides of protein N of SARS-CoV Urbani: unit not given here
[2] = test system: control sera (pooled serum of ten healthy LUMC hospital workers; commercial negative donor pooled serum from the Dutch bloodbank); assay type: binding, human; parameters: Binding of Control serum LUMC to linear peptides / Binding of Control serum Blood-bank to linear peptides / Binding of Control serum LUMC to looped peptides / Binding of Control Serum Blood-Bank to Looped peptides / Binding of Control serum LUMC to linear peptides of the protein M of SARS-CoV Urbani / Binding of Control serum Blood-bank to linear peptides of the protein M of SARS-CoV Urbani / Binding of Control serum LUMC to looped peptides of the protein M of SARS-CoV Urbani / Binding of Control Serum Blood-Bank to Looped peptides of the protein M of SARS-CoV Urbani: unit not given here
[3] = test system: rabbit serum obtained by immunizing a rabbit with the SARS-CoV strain Frankfurt 1; assay type: binding; parameters: Binding of a rabbit serum to linear peptides / Binding of a rabbit serum to looped peptides / Rabbit serum linear peptides / Rabbit serum looped peptides / Binding of a rabbit serum to linear peptides of protein N of SARS-CoV Urbani (Rabbit serum linear peptides) / Binding of a rabbit serum to looped/cyclic peptides of protein N of SARS-CoV Urbani (Rabbit serum looped peptides): unit not given here

NVQIHTIDGSSGVAN
Binding of serum 1a to linear peptides of protein X1 of SARS-CoV Urbani [1]: 0.7 | Binding of serum 1a to looped/cyclic peptides of protein X1 of SARS-CoV Urbani [1]: 0.2 | Binding of serum 1b to linear peptides of protein X1 of SARS-CoV Urbani [1]: 0.5 | Binding of serum 1b to looped/cyclic peptides of protein X1 of SARS-CoV Urbani [1]: 0.2 | Binding of serum 2 to linear peptides of protein X1 of SARS-CoV Urbani [1]: 0.5 | Binding of serum 2 to looped/cyclic peptides of protein X1 of SARS-CoV Urbani [1]: 0.1 | Binding of serum 6 to linear peptides of protein X1 of SARS-CoV Urbani [1]: 0.4 | Binding of serum 6 to looped/cyclic peptides of protein X1 of SARS-CoV Urbani [1]: 0.1 | Binding of serum 37 to linear peptides of protein X1 of SARS-CoV Urbani [1]: 0.7 | Binding of serum 37 to looped/cyclic peptides of protein X1 of SARS-CoV Urbani [1]: 0.3 | Binding of serum 62 to linear peptides of protein X1 of SARS-CoV Urbani [1]: 0.6 | Binding of serum 62 to looped/cyclic peptides of protein X1 of SARS-CoV Urbani [1]: 0.3 | Binding of serum London to linear peptides of protein X1 of SARS-CoV Urbani [1]: 0.3 | Binding of serum London to looped/cyclic peptides of protein X1 of SARS-CoV Urbani [1]: 0.2 | Binding of serum SARS-green to linear peptides of protein X1 of SARS-CoV Urbani [1]: 0.3 | Binding of serum SARS-green to looped/cyclic peptides of protein X1 of SARS-CoV Urbani [1]: 0.2 | Binding of serum SARS-yellow to linear peptides of protein X1 of SARS-CoV Urbani [1]: 0.4 | Binding of serum SARS-yellow to looped/cyclic peptides of protein X1 of SARS-CoV Urbani [1]: 0.1 | Binding of Control Serum Blood-Bank to Looped peptides [2]: 0.4 | Binding of Control serum Blood-bank to linear peptides [2]: 0.5 | Binding of Control serum LUMC to linear peptides [2]: 0.5 | Binding of Control serum LUMC to looped peptides [2]: 0.4 | Binding of a rabbit serum to linear peptides [3]: 0.1 | Binding of a rabbit serum to looped peptides [3]: 0.3

WLSYFVASFRLFART
Binding of serum 1a to linear peptides of protein M of SARS-CoV Urbani [1]: 0.6 | Binding of serum 1b to linear peptides of protein M of SARS-CoV Urbani [1]: 0.5 | Binding of serum 2 to linear peptides of protein M of SARS-CoV Urbani [1]: 0.4 | Binding of serum 6 to linear peptides of protein M of SARS-CoV Urbani [1]: 0.4 | Binding of serum 37 to linear peptides of protein M of SARS-CoV Urbani [1]: 0.4 | Binding of serum 62 to linear peptides of protein M of SARS-CoV Urbani [1]: 0.4 | Binding of serum London to linear peptides of protein M of SARS-CoV Urbani [1]: 0.3 | Binding of serum SARS-green to linear peptides of protein M of SARS-CoV Urbani [1]: 0.4 | Binding of serum SARS-yellow to linear peptides of protein M of SARS-CoV Urbani [1]: 0.1 | Recognition of the peptide by sera of SARS-CoV infected individuals, and form (linear, looped/cyclic) in which it is recognized [1]: recognized in looped/cyclic form | Binding of Control Serum Blood-Bank to Looped peptides of the protein M of SARS-CoV Urbani [2]: 0.6 | Binding of Control serum Blood-bank to linear peptides of the protein M of SARS-CoV Urbani [2]: 0.7 | Binding of Control serum LUMC to linear peptides of the protein M of SARS-CoV Urbani [2]: 0.6 | Binding of Control serum LUMC to looped peptides of the protein M of SARS-CoV Urbani [2]: 0.8 | Rabbit serum linear peptides [3]: 0.2 | Rabbit serum looped peptides [3]: 0.4

ACFVLAAVYRINWVT
Binding of serum 1a to linear peptides of protein M of SARS-CoV Urbani [1]: 0.7 | Binding of serum 1a to looped/cyclic peptides of protein M of SARS-CoV Urbani [1]: 0.7 | Binding of serum 1b to linear peptides of protein M of SARS-CoV Urbani [1]: 0.6 | Binding of serum 1b to looped/cyclic peptides of protein M of SARS-CoV Urbani [1]: 0.7 | Binding of serum 2 to linear peptides of protein M of SARS-CoV Urbani [1]: 0.5 | Binding of serum 2 to looped/cyclic peptides of protein M of SARS-CoV Urbani [1]: 0.5 | Binding of serum 6 to linear peptides of protein M of SARS-CoV Urbani [1]: 0.3 | Binding of serum 6 to looped/cyclic peptides of protein M of SARS-CoV Urbani [1]: 1.0 | Binding of serum 37 to linear peptides of protein M of SARS-CoV Urbani [1]: 0.8 | Binding of serum 37 to looped/cyclic peptides of protein M of SARS-CoV Urbani [1]: 0.7 | Binding of serum 62 to linear peptides of protein M of SARS-CoV Urbani [1]: 0.9 | Binding of serum 62 to looped/cyclic peptides of protein M of SARS-CoV Urbani [1]: 0.6 | Binding of serum London to linear peptides of protein M of SARS-CoV Urbani [1]: 0.3 | Binding of serum London to looped/cyclic peptides of protein M of SARS-CoV Urbani [1]: 0.3 | Binding of serum SARS-green to linear peptides of protein M of SARS-CoV Urbani [1]: 0.3 | Binding of serum SARS-green to looped/cyclic peptides of protein M of SARS-CoV Urbani [1]: 0.3 | Binding of serum SARS-yellow to linear peptides of protein M of SARS-CoV Urbani [1]: 0.0 | Binding of serum SARS-yellow to looped/cyclic peptides of protein M of SARS-CoV Urbani [1]: 0.5 | Binding of Control Serum Blood-Bank to Looped peptides of the protein M of SARS-CoV Urbani [2]: 0.7 | Binding of Control serum Blood-bank to linear peptides of the protein M of SARS-CoV Urbani [2]: 0.7 | Binding of Control serum LUMC to linear peptides of the protein M of SARS-CoV Urbani [2]: 0.3 | Binding of Control serum LUMC to looped peptides of the protein M of SARS-CoV Urbani [2]: 0.7 | Rabbit serum linear peptides [3]: 0.4 | Rabbit serum looped peptides [3]: 0.3
